Reference: US8097637B2, “Benzoyl-piperidine derivatives as dual modulators of the 5-HT2A and D3 receptors” (Hoffmann-La Roche Inc., priority 2007, dated 2012)

Columns and labels:
[1] = target: T1, human D3 dopamine receptor (Homo sapiens, UniProt P35462); experiment: Radioligand binding ([3H]-spiperone) to cloned human D3 receptor, HEK-293 EBNA cell membranes; settings: 0.5 nM [3H]-spiperone, 1 h at RT, Cheng-Prusoff
T1 construct: expressed in transfected cells; host or cells: HEK-293 EBNA cells, transient transfection; membrane preparation
T1 sequence (P35462 whole entry): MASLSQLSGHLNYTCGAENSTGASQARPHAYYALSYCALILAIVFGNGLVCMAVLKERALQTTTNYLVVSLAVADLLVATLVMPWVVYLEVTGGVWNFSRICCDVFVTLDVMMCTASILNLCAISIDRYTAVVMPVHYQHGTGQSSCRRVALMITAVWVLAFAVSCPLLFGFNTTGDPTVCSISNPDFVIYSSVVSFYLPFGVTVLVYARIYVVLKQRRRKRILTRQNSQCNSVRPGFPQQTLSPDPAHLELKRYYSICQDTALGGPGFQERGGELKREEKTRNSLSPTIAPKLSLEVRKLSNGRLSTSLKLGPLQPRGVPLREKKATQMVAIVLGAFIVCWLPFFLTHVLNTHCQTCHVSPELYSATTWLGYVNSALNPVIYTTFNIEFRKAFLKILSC
Method: The ability of the compounds to bind to the 5-HT2A, D3 and D2 receptors was determined using radioligand binding to cloned receptors selectively expressed in HEK-293 EBNA cells.
(§1) Membrane Preparation for Human D2, Human D3 and Human 5-HT2A Receptors
(§2) HEK-293 EBNA cells were transiently transfected with expression plasmids encoding for the human D2 or D3 dopamine- or for the human 5-HT2A serotonin receptor, respectively. The cells were harvested 48 h post-transfection, washed three times with cold PBS and stored at −80° C. prior to use. The pellet was suspended in cold 50 mM Tris-HCl buffer containing 10 mM EDTA (pH 7.4) and homogenized with a Polytron (Kinematica AG, Basel, Switzerland) for 20-30 sec at 12.000 rpm. After centrifugation at 48.000×g for 30 min at 4° C., the pellet was resuspended in cold 10 mM Tris-HCl buffer containing 0.1 mM EDTA (pH 7.4), homogenized, and centrifuged as above. This pellet was further resuspended in a smaller volume of ice cold 10 mM Tris-HCl buffer containing 0.1 mM EDTA (pH 7.4) and homogenized with a Polytron for 20-30 sec at 12.000 rpm. The protein content of this homogenate was determined with the Bio-Rad (Bradford) Protein Assay (Biorad Laboratories GmbH, München, Germany) according to the instructions of the manufacturer using gamma globulin as the standard. This homogenate was stored at −80° C. in aliquots and thawed immediately prior to use.
(§3) Radioligand Binding Assay Conditions
(§4) Aliquots of membrane preparations were thawed at RT, resuspended in assay buffer (D2, D3: 50 mM Tris-HCl, 120 mM NaCl, 5 mM MgCl2, 1 mM EDTA, 5 mM KCl, 1.5 mM CaCl2, pH=7.4; 5-HT2A: 50 mM Tris-HCl, 10 mM MgCl2, 1 mM EGTA, pH=7.4), homogenized with a Polytron for 20-30 sec at 12.000 rpm and adjusted to a final concentration of approximately 7.5 μg protein/well (D2, D3) and 15 μg protein/well (5-HT2A), respectively.
(§5) The binding affinity (Ki) of the compounds was determined using radioligand binding. Membranes were incubated in a total volume of 200 μl with a fixed concentration of radioligand (final concentration approximately 0.7 nM [^3H]-spiperone for D2, 0.5 nM [^3H]-spiperone for D3, and 1.1 nM [^3H]-ketanserin for 5-HT2A) and ten concentrations of test compound in ranging between 10 μM-0.1 nM for 1 h at RT. At the end of the incubation, the reaction mixtures were filtered on to unifilter 96-well white microplates with bonded GF/C filters (Packard BioScience, Zürich, Switzerland; preincubated for 1 h in 0.1% polyethylenimine (PEI) in assay buffer) with a Filtermate 196 harvester (Packard BioScience) and washed 3 times with cold assay buffer. The nonspecific binding was determined with equally composed reaction mixtures in the presence of 10 μM unlabeled spiperone. Per well 45 μl of Microscint 40 (Perkin Elmer, Schwerzenbach, Switzerland) was added, plates for sealed, shaken for 20 min and counted for 3 min on a Topcount Microplate Scintillation Counter (Canberra Packard SA, Zürich, Switzerland) with quenching correction.
(§6) The CPM value for each duplicate of a concentration of competing compound was averaged (yl), then the % specific binding was calculated according to the equation (((yl-non-specific)/(total binding-non-specific))×100). Graphs were plotted with the % specific binding using XLfit, a curve fitting program that iteratively plots the data using Levenburg Marquardt algorithm. The single site competition analysis equation used was y=A+((B−A)/(1+((x/C)^D))), where y is the % specific binding, A is the minimum y, B is the maximum y, C is the IC50, x is the log10 of the concentration of the competing compound and D is the slope of the curve (the Hill Coefficient). […] The affinity constant (Ki) was calculated using the Cheng-Prusoff equation Ki=(IC50/1+([L]/Kd), where [L] is the concentration of radioligand and Kd is the dissociation constant of the radioligand at the receptor as determined by the saturation isotherm.

[2] = target: T2, human D2 dopamine receptor (Homo sapiens, UniProt P14416); experiment: Radioligand binding ([3H]-spiperone) to cloned human D2 receptor, HEK-293 EBNA cell membranes; settings: 0.7 nM [3H]-spiperone, 1 h at RT, Cheng-Prusoff
T2 construct: expressed in transfected cells; host or cells: HEK-293 EBNA cells, transient transfection; membrane preparation
T2 sequence (P14416 whole entry): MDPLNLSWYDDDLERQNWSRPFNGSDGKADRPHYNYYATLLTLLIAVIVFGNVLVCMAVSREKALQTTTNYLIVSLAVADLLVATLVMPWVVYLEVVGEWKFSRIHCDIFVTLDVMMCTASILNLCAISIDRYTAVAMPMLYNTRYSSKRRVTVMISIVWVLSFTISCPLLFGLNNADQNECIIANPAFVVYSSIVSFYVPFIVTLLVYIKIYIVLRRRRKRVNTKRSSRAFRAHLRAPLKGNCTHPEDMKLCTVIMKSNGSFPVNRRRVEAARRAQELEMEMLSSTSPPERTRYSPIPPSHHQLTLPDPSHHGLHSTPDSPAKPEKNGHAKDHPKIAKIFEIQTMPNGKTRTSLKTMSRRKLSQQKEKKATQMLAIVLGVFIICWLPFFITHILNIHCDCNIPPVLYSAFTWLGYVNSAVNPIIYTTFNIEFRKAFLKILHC
Method: as §1, §2, §3, §4, §5, §6

[3] = target: T3, human 5-HT2A serotonin receptor (Homo sapiens, UniProt P28223); experiment: Radioligand binding ([3H]-ketanserin) to cloned human 5-HT2A receptor, HEK-293 EBNA cell membranes; settings: 1.1 nM [3H]-ketanserin, 1 h at RT, Cheng-Prusoff
T3 construct: expressed in transfected cells; host or cells: HEK-293 EBNA cells, transient transfection; membrane preparation
T3 sequence (P28223 whole entry): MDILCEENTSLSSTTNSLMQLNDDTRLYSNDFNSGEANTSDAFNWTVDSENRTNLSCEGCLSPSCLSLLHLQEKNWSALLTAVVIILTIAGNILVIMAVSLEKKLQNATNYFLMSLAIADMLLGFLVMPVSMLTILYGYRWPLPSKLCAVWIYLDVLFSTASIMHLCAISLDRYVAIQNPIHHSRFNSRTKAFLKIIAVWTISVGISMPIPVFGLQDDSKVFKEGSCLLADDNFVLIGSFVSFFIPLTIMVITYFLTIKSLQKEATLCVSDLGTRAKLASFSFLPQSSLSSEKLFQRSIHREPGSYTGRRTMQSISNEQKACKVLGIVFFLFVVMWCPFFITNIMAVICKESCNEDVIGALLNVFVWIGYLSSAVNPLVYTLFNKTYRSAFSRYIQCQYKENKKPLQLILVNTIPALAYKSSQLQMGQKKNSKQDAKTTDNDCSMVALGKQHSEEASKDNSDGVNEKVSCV
Method: as §1
as §2, with “The” for “HEK-293 EBNA cells were transiently transfected with expression plasmids encoding for the human D2 or D3 dopamine- or for the human 5-HT2A serotonin receptor, respectively. The”
as §3, §4
The binding affinity (Ki) of the compounds was determined using radioligand binding. […] The nonspecific binding was determined with equally composed reaction mixtures in the presence of 10 μM unlabeled spiperone. Per well 45 μl of Microscint 40 (Perkin Elmer, Schwerzenbach, Switzerland) was added, plates for sealed, shaken for 20 min and counted for 3 min on a Topcount Microplate Scintillation Counter (Canberra Packard SA, Zürich, Switzerland) with quenching correction.
as §6

SMILES | Ki [1] [nM] | Ki [2] [nM] | Ki [3] [nM]
O=C(CC1CCC(O)CC1)N[C@H]1CC[C@H](CCN2CCC(C(=O)c3ccc(F)cc3)CC2)CC1 (mixture of isomers) [Example 1, N-trans (4-{2-[4-(4-Fluoro-benzoyl)-piperidin-1-yl]-ethyl}-cyclohexyl)-2-cis/trans (4-hydroxy-cyclohexyl)-acetamide] | 43 | 1490 | 13
O=C(CC1CC(CO)C1)N[C@H]1CC[C@H](CCN2CCC(C(=O)c3ccc(F)cc3)CC2)CC1 (mixture of isomers) [Example 19, N-trans (4-{2-[4-(4-Fluoro-benzoyl)-piperidin-1-yl]-ethyl}-cyclohexyl)-2-cis/trans (3-hydroxymethyl-cyclobutyl)-acetamide] | 28 | 1000 | 11
COCC1CC(CC(=O)N[C@H]2CC[C@H](CCN3CCC(C(=O)c4ccc(F)cc4)CC3)CC2)C1 (mixture of isomers) [Example 20, N-trans(4-{2-[4-(4-Fluoro-benzoyl)-piperidin-1-yl]-ethyl}-cyclohexyl)-2-cis/trans (3-methoxymethyl-cyclobutyl)-acetamide] | 27 | 1360 | 12
CC1(O)CCC(CC(=O)N[C@H]2CC[C@H](CCN3CCC(C(=O)c4ccc(F)cc4)CC3)CC2)CC1 (mixture of isomers) [Example 22, N-trans (4-{2-[4-(4-Fluoro-benzoyl)-piperidin-1-yl]-ethyl}-cyclohexyl)-2-(4-cis/trans-hydroxy-4-methyl-cyclohexyl)-acetamide] | 56 | 1360 | 12
O=C(C[C@H]1CCC[C@@H](O)C1)N[C@H]1CC[C@H](CCN2CCC(C(=O)c3ccc(F)cc3)CC2)CC1 (racemic) [Example 4, rac-N-trans (4-{2-[4-(4-Fluoro-benzoyl)-piperidin-1-yl]-ethyl}-cyclohexyl)-2-cis (3-hydroxy-cyclohexyl)-acetamide] | 43 | 1010 | 14
CO[C@@H]1CCC[C@H](CC(=O)N[C@H]2CC[C@H](CCN3CCC(C(=O)c4ccc(F)cc4)CC3)CC2)C1 (racemic) [Example 5, rac-N-trans (4-{2-[4-(4-Fluoro-benzoyl)-piperidin-1-yl]-ethyl}-cyclohexyl)-2-cis (3-methoxy-cyclohexyl)-acetamide] | 45 | 1190 | 19
O=C(C[C@H]1CC[C@@H](O)C1)N[C@H]1CC[C@H](CCN2CCC(C(=O)c3ccc(F)cc3)CC2)CC1 (racemic) [Example 6, rac-trans-N (4-{2-[4-(4-Fluoro-benzoyl)-piperidin-1-yl]-ethyl}-cyclohexyl)-2-cis (3-hydroxy-cyclopentyl)-acetamide] | 35 | 828 | 11
O=C(C[C@H]1CC[C@H](O)C1)N[C@H]1CC[C@H](CCN2CCC(C(=O)c3ccc(F)cc3)CC2)CC1 (racemic) [Example 7, rac-N-trans (4-{2-[4-(4-Fluoro-benzoyl)-piperidin-1-yl]-ethyl}-cyclohexyl)-2-trans (3-hydroxy-cyclopentyl)-acetamide] | 19 | 807 | 16
CO[C@H]1CC[C@H](CC(=O)N[C@H]2CC[C@H](CCN3CCC(C(=O)c4ccc(F)cc4)CC3)CC2)C1 (racemic) [Example 8, rac-N-trans(4-{2-[4-(4-Fluoro-benzoyl)-piperidin-1-yl]-ethyl}-cyclohexyl)-2-trans (3-methoxy-cyclopentyl)-acetamide] | 23 |  | 16
CO[C@@H]1CC[C@H](CC(=O)N[C@H]2CC[C@H](CCN3CCC(C(=O)c4ccc(F)cc4)CC3)CC2)C1 (racemic) [Example 9, rac-N-trans (4-{2-[4-(4-Fluoro-benzoyl)-piperidin-1-yl]-ethyl}-cyclohexyl)-2-cis (3-methoxy-cyclopentyl)-acetamide] | 42 |  | 6
CO[C@@H]1CC[C@H](CC(=O)N[C@H]2CC[C@H](CCN3CCC(C(=O)c4ccc(F)cc4)CC3)CC2)C1 (single isomer, unassigned) [Example 10, N-trans (4-{2-[4-(4-Fluoro-benzoyl)-piperidin-1-yl]-ethyl}-cyclohexyl)-2-((1S,3R)-3-methoxy-cyclopentyl)-acetamide or N-trans (4-{2-[4-(4-fluoro-benzoyl)-piperidin-1-yl]-ethyl}-cyclohexyl)-2-((1R,3S)-3-methoxy-cyclopentyl)-acetamide] | 56 |  | 5
CO[C@H]1CC[C@@H](CC(=O)N[C@H]2CC[C@H](CCN3CCC(C(=O)c4ccc(F)cc4)CC3)CC2)C1 (single isomer, unassigned) [Example 11, N-trans (4-{2-[4-(4-Fluoro-benzoyl)-piperidin-1-yl]-ethyl}-cyclohexyl)-2-((1R,3S)-3-methoxy-cyclopentyl)-acetamide or N-trans (4-{2-[4-(4-fluoro-benzoyl)-piperidin-1-yl]-ethyl}-cyclohexyl)-2-((1S,3R)-3-methoxy-cyclopentyl)-acetamide] | 62 |  | 11
CO[C@H]1CC[C@H](CC(=O)N[C@H]2CC[C@H](CCN3CCC(C(=O)c4ccc(F)cc4)CC3)CC2)C1 (single isomer, unassigned) [Example 14, N-trans (4-{2-[4-(4-Fluoro-benzoyl)-piperidin-1-yl]-ethyl}-cyclohexyl)-2-((1S,3S)-3-methoxy-cyclopentyl)-acetamide or N-trans (4-{2-[4-(4-fluoro-benzoyl)-piperidin-1-yl]-ethyl}-cyclohexyl)-2-((1R,3R)-3-methoxy-cyclopentyl)-acetamide] | 18 |  | 7
CO[C@@H]1CC[C@@H](CC(=O)N[C@H]2CC[C@H](CCN3CCC(C(=O)c4ccc(F)cc4)CC3)CC2)C1 (single isomer, unassigned) [Example 15, N-trans (4-{2-[4-(4-Fluoro-benzoyl)-piperidin-1-yl]-ethyl}-cyclohexyl)-2-((1R,3R)-3-methoxy-cyclopentyl)-acetamide or N-trans (4-{2-[4-(4-fluoro-benzoyl)-piperidin-1-yl]-ethyl}-cyclohexyl)-2-((1S,3S)-3-methoxy-cyclopentyl)-acetamide] | 34 |  | 16
